Nine molecules from PMC6445170, “VEGFR-2 inhibitors and apoptosis inducers: synthesis and molecular design of new benzo[g]quinazolin bearing benzenesulfonamide moiety” (Journal of Enzyme Inhibition and Medicinal Chemistry, 2017) can be followed below.

The IC50 is the midpoint of a concentration-inhibition curve.

Structures are written as SMILES.

For the first assay, the target named is T1, VEGFR-2 (Homo sapiens, UniProt P35968).
T1 construct: gene KDR; not described; endogenous activity said to be determined in MCF-7 cells, but compounds were incubated with 'enzyme' (AlphaScreen)
T1 sequence (P35968 20-1356): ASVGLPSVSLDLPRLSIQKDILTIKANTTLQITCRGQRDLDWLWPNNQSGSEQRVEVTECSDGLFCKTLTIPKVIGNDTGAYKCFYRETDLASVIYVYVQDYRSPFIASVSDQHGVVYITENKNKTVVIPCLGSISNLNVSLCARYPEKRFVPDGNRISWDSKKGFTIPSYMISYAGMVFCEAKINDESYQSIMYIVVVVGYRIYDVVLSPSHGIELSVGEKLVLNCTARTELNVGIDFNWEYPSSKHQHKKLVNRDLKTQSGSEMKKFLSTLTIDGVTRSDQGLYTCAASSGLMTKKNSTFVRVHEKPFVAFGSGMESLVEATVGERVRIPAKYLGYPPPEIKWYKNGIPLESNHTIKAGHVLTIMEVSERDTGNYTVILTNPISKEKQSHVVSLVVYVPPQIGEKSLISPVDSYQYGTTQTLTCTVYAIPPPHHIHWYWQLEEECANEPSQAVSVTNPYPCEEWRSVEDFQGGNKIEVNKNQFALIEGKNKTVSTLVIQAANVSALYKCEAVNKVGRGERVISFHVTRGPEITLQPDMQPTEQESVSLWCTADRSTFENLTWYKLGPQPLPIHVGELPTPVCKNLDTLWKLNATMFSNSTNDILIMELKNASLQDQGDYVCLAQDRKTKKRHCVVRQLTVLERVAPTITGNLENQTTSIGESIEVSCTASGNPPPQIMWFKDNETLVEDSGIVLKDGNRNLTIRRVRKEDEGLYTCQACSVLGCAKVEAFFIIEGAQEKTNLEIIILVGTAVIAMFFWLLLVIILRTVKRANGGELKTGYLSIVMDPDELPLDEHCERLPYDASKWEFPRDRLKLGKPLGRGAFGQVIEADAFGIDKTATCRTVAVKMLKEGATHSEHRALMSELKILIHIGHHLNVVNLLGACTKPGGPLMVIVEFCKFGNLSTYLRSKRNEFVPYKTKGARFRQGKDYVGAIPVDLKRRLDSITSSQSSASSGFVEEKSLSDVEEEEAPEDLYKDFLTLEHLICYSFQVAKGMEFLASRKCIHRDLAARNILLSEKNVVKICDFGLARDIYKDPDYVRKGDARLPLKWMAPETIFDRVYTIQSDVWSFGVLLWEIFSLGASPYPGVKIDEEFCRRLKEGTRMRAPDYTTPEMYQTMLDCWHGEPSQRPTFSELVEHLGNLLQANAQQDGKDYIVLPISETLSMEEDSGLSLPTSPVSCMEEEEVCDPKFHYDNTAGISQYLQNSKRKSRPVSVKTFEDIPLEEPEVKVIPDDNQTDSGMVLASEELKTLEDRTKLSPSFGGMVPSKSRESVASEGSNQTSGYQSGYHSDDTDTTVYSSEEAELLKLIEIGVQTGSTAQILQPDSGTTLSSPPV
Description: AlphaScreen kinase assay, phosphotyrosine antibody. Conditions: 5 min preincubation, room temperature; VEGFR-2 activity determined in MCF-7 cells. Type of assay: cell-based. The text has this: AlphaScreen kinase assay, phosphotyrosine antibody on VEGFR-2
(Alpha assays give light when donor and acceptor beads are brought close together.)
Turning to `NNC(=O)CSc1nc2cc3ccccc3cc2c(=O)n1-c1ccc(S(N)(=O)=O)cc1` [compound 5, 4-(2-(2-Hydrazinyl-2-oxoethylthio)-4-oxobenzo[g]quinazolin-3(4H)-yl)benzenesulfonamide], the “% Inhibition of VEGFR-2 enzyme” value stood at 68.44%.

As to `Cc1ccc(C)c(C=NNC(=O)CSc2nc3cc4ccccc4cc3c(=O)n2-c2ccc(S(N)(=O)=O)cc2)c1` [compound 6, 4-(2-(2-(2-(2,5-Dimethylbenzylidene)hydrazinyl)-2-oxoethylthio)-4-oxobenzo[g]quinazolin-3(4H)-yl)benzenesulfonamide], the “% Inhibition of VEGFR-2 enzyme” value came out at 69.95%.

For the molecule `NS(=O)(=O)c1ccc(-n2c(SCC(=O)NN=Cc3ccc(Br)cc3)nc3cc4ccccc4cc3c2=O)cc1` [compound 10, 4-(2-(2-(2-(4-Bromobenzylidene)hydrazinyl)-2-oxoethylthio)-4-oxobenzo[g]quinazolin-3(4H)-yl)benzenesulfonamide], the “% Inhibition of VEGFR-2 enzyme” value is listed as 64.89%.

In the case of `NS(=O)(=O)c1ccc(-n2c(SCC(=O)NN=Cc3ccc4c(c3)OCO4)nc3cc4ccccc4cc3c2=O)cc1` [compound 11, 4-(2-(2-(2-(Benzo[d][1,3]dioxol-5-ylmethylene)hydrazinyl)-2-oxoethylthio)-4-oxobenzo[g]quinazolin-3(4H)-yl)benzenesulfonamide], the “% Inhibition of VEGFR-2 enzyme” value was determined as 71.29%.

The assay is the same for the next values; noted with them: 5 min preincubation, room temperature; VEGFR-2 activity determined in MCF-7 cells; inhibitor concentration not stated.
Take `Cc1ccc(C=NNC(=O)CSc2nc3cc4ccccc4cc3c(=O)n2-c2ccc(S(N)(=O)=O)cc2)cc1F` [compound 7, 4-(2-(2-(2-(3-Fluoro-4-methylbenzylidene)hydrazinyl)-2-oxoethylthio)-4-oxobenzo[g]quinazolin-3(4H)-yl)benzenesulfonamide]: the “% Inhibition of VEGFR-2 enzyme” value is on record as 72.19%.

Staying with this assay, now noted: 5 min preincubation, room temperature; VEGFR-2 activity determined in MCF-7 cells; read-out: IC50 on VEGFR-2 enzyme (μm).
For `NS(=O)(=O)c1ccc(-n2c(SCC(=O)NN=Cc3ccc(Cl)cc3Cl)nc3cc4ccccc4cc3c2=O)cc1` [compound 9, 4-(2-(2-(2-(2,4-Dichlorobenzylidene)hydrazinyl)-2-oxoethylthio)-4-oxobenzo[g]-quinazolin-3(4H)-yl)benzenesulfonamide], the IC50 is 640 nM.

Consider `NS(=O)(=O)c1ccc(-n2c(SCC(=O)N3NC(=O)CC3=O)nc3cc4ccccc4cc3c2=O)cc1` [compound 20, 4-(2-(2-(3,5-Dioxopyrazolidin-1-yl)-2-oxoethylthio)-4-oxobenzo[g]quinazolin-3(4H)-yl) benzenesulfonamide], for which the half-maximal inhibitory concentration (IC50) was 860 nM.

In the case of `CCOC(=O)c1cnn(C(=O)CSc2nc3cc4ccccc4cc3c(=O)n2-c2ccc(S(N)(=O)=O)cc2)c1N` [compound 22, Ethyl 5-amino-1-(2-(4-oxo-3-(4-sulfamoylphenyl)-3,4-dihydrobenzo[g]quinazolin-2-ylthio)acetyl)-1H-pyrazole-4-carboxylate], the IC50 was 830 nM.

For `Cc1nn(C(=O)CSc2nc3cc4ccccc4cc3c(=O)n2-c2ccc(S(N)(=O)=O)cc2)c(N)c1C#N` [compound 23, 4-(2-(2-(5-Amino-4-cyano-3-methyl-1H-pyrazol-1-yl)-2-oxoethylthio)-4-oxobenzo[g]quinazo-lin-3(4H)-yl) benzenesulfonamide], the IC50 was 1040 nM.
